Measurements reported in ChEMBL document CHEMBL5038652, “Structural Rigidification of N-Aryl-pyrroles into Indoles Active against Intracellular and Drug-Resistant Mycobacteria” (ACS Med Chem Lett, 2022).
≈ marks a conversion by molar mass, not a printed value.

Key:
[1] = test system: Mycobacterium tuberculosis; experiment: Antimycobacterial activity against Mycobacterium tuberculosis H37Rv assessed as reduction in bacterial growth incubated for 7 days by resazurin dye based assay; type: functional; conditions: 168 h, time 7 day
[2] = Selectivity index, ratio of IC50 for mouse J774.A1 cells to MIC for Mycobacterium tuberculosis H37Rv; type: toxicity; conditions: read-out: Selectivity Index
[3] = Cytotoxicity against mouse J774.A1 cells assessed as reduction in cell viability after 24 hrs by resazurin dye based assay; type: toxicity
[4] = test system: Mycobacterium tuberculosis; experiment: Antimycobacterial activity against Mycobacterium tuberculosis H37Rv clinical isolates 1 assessed as reduction in bacterial growth incubated for 7 days by resazurin dye based assay; type: functional; conditions: 168 h, time 7 day
[5] = test system: Mycobacterium tuberculosis; experiment: Antimycobacterial activity against Mycobacterium tuberculosis H37Rv clinical isolates 4 assessed as reduction in bacterial growth incubated for 7 days by resazurin dye based assay; type: functional; conditions: 168 h, time 7 day
[6] = test system: Mycobacterium tuberculosis; experiment: Antimycobacterial activity against Mycobacterium tuberculosis H37Rv clinical isolates 3 assessed as reduction in bacterial growth incubated for 7 days by resazurin dye based assay; type: functional; conditions: 168 h, time 7 day
[7] = test system: Mycobacterium tuberculosis; experiment: Antimycobacterial activity against Mycobacterium tuberculosis H37Rv clinical isolates 2 assessed as reduction in bacterial growth incubated for 7 days by resazurin dye based assay; type: functional; conditions: 168 h, time 7 day
[8] = test system: Mycobacterium tuberculosis; experiment: Antimycobacterial activity against Mycobacterium tuberculosis H37Rv infected in mouse J774.A1 cells assessed as log reduction of bacterial growth at 1X MIC measured after 3 days by visual colony counting analysis; type: functional; conditions: time 3 day

SMILES	MIC [1] [µg/mL]	further results
Cn1cc(CNCC2CCCCC2)c2ccc(Cl)cc21	19.1 (≈ 65.6 µM)	–
Clc1ccc2c(CNCC3CCCCC3)cn(C3CCCCCCC3)c2c1	1.56 (≈ 4.03 µM)	–
CC(C)n1cc(CNC2CCCCCC2)c2ccc(Cl)cc21	16.3 (≈ 51.2 µM)	–
Cn1cc(CNC2C3CC4CC(C3)CC2C4)c2ccc(Cl)cc21 (stereo not given)	10.9 (≈ 33.2 µM)	selectivity ratio [2]: 1.48; IC50 at 24 h [3]: 16.2 µg/mL (≈ 49.2 µM)
Clc1ccc2c(CNC3CCCCC3)c[nH]c2c1	> 25	–
Cn1cc(CNCc2ccccc2)c2ccc(Cl)cc21	> 25	–
c1ccc2c(CNC3CCCCCC3)c[nH]c2c1	> 25	–
CO[C@H]1/C=C/O[C@@]2(C)Oc3c(C)c(O)c4c(O)c(c(/C=N/N5CCN(C)CC5)c(O)c4c3C2=O)NC(=O)/C(C)=C\C=C\[C@H](C)[C@H](O)[C@@H](C)[C@@H](O)[C@@H](C)[C@H](OC(C)=O)[C@@H]1C [RIFAMPIN]	–	MIC [4]: > 25 µg/mL; MIC [5]: < 0.1 µg/mL; MIC [6]: > 25 µg/mL; MIC [7]: 0.65 µg/mL (≈ 0.79 µM)
Cn1cc(CNC2CCCCCCC2)c2ccc(Cl)cc21	23.2 (≈ 76.3 µM)	–
Clc1ccc2[nH]cc(CNC3CCCCC3)c2c1	16.3 (≈ 62.1 µM)	–
CC(C)n1cc(CNC2CCCCCCC2)c2ccc(Cl)cc21	14 (≈ 42.1 µM)	–
Clc1ccc2c(CNCc3ccccc3)cn(C3CCCCCCC3)c2c1	19.7 (≈ 51.8 µM)	–
NCC[C@H](O)C(=O)N[C@@H]1C[C@H](N)[C@@H](O[C@H]2O[C@H](CN)[C@@H](O)[C@H](O)[C@H]2O)[C@H](O)[C@H]1O[C@H]1O[C@H](CO)[C@@H](O)[C@H](N)[C@H]1O [AMIKACIN]	–	MIC [4]: 0.32 µg/mL (≈ 0.546 µM); MIC [5]: 0.14 µg/mL (≈ 0.239 µM); MIC [6]: > 25 µg/mL; MIC [7]: 23.1 µg/mL (≈ 39.5 µM)
CC(C)=CCC/C=C(\C)Cn1cc(CNC2CCCCCC2)c2ccc(Cl)cc21	2.75 (≈ 6.66 µM)	–
CC(C)n1cc(CNCC2CCCCC2)c2ccc(Cl)cc21	6.09 (≈ 19.1 µM)	selectivity ratio [2]: 2.39; IC50 at 24 h [3]: 14.6 µg/mL (≈ 45.7 µM)
c1ccc2c(CNCC3CCCCC3)c[nH]c2c1	> 25	–
Clc1ccc2c(CNC3C4CC5CC(C4)CC3C5)c[nH]c2c1 (stereo not given)	6.07 (≈ 19.3 µM)	selectivity ratio [2]: 1.24; IC50 at 24 h [3]: 7.51 µg/mL (≈ 23.9 µM)
COc1c(N2C[C@@H]3CCCN[C@@H]3C2)c(F)cc2c(=O)c(C(=O)O)cn(C3CC3)c12 [MOXIFLOXACIN]	–	Activity [8]: 0.11 log10CFU
Cc1ccc2[nH]cc(CNC3CCCCC3)c2c1	> 25	–
Cc1cc(CNC2CCCCC2)c(C)n1-c1ccc(Cl)cc1	0.2 (≈ 0.631 µM)	–
Clc1ccc2c(CNC3CCCCCC3)c[nH]c2c1	17.1 (≈ 61.9 µM)	–
CC(C)n1cc(CNC2CCCCC2)c2ccc(Cl)cc21	23.9 (≈ 78.3 µM)	–
Clc1ccc2c(CNCc3ccccc3)c[nH]c2c1	22.8 (≈ 84.3 µM)	–
c1ccc2c(CNC3CCCCCCC3)c[nH]c2c1	> 25	–
Cc1cc(CNCC2CCCCC2)c(C)n1-c1ccc(Cl)cc1	0.3 (≈ 0.907 µM)	–
Clc1ccc2c(CNC3CCCCCCC3)c[nH]c2c1	> 25	–
Cn1cc(CNC2CCCCC2)c2ccc(Cl)cc21	> 25	–
Cc1ccc2[nH]cc(CNC3CCCCCC3)c2c1	24.7 (≈ 96.4 µM)	–
Clc1ccc2c(CNCC3CCCCC3)c[nH]c2c1	24.2 (≈ 87.4 µM)	–
NNC(=O)c1ccncc1 [ISONIAZID]	–	MIC [4]: > 25 µg/mL; MIC [5]: 0.25 µg/mL (≈ 1.82 µM); MIC [6]: > 25 µg/mL; MIC [7]: > 25 µg/mL
